# Source: ChEMBL document CHEMBL2010689 (J Med Chem, 2012)
# pEC50, pIC50, pKi: −log10 of the molar value. The source made the active and inactive calls. The rule behind the calls is not given here.
# Tests used:
# [1] = system: HUVEC; experiment: Antiangiogenic activity in HUVEC assessed as inhibition of FGF-induced survival; format: functional, cell-based; settings: Homo sapiens
# [2] = system: A-375; experiment: Antitumor activity against human A375 cells xenografted in athymic nude mouse assessed as complete tumor regression at 3 mg/kg, po bid; format: functional
# [3] = molecular target: Insulin-like growth factor 1 receptor (Homo sapiens) (UniProt P08069); experiment: Inhibition of IGFR1 at 1 uM
# [4] = system: P388; experiment: Antitumor activity against mouse P388 cells xenografted in DBA/2 mouse assessed as mean survival at 30 mg/kg, po bid for 7 days followed by readministeration after 14 days; format: functional
# [5] = Antitumor activity against human U251MG cells xenografted in athymic nude mouse assessed as tumor growth inhibition at 30 mg/kg, po bid measured on day 29 relative to control; format: functional; settings: U-251, 696 h, read-out: GI
# [6] = molecular target: Epidermal growth factor receptor (Homo sapiens) (UniProt P00533); experiment: Inhibition of EGFR at 1 uM
# [7] = Cmax in cynomolgus monkey at 3 mg/kg, po; format: ADME, organism-based, Macaca fascicularis; design: dose 3 mg/kg, route oral; settings: in vivo
# [8] = system: P388; experiment: Antitumor activity against mouse P388 cells xenografted in DBA/2 mouse assessed as mean survival at 30 mg/kg, po qd for 7 days followed by readministeration after 7 days; format: functional
# [9] = molecular target: Substance-P receptor (Homo sapiens) (UniProt P25103); experiment: Inhibition of neurokinin NK1 receptor at 10 uM
# [10] = Antiangiogenic activity in BAEC assessed as inhibition of VEGF-induced proliferation; format: functional; settings: Bos taurus
# [11] = Antitumor activity against human U251MG cells xenografted in athymic nude mouse assessed as partial tumor regression at 10 mg/kg, po bid; format: functional, U-251
# [12] = molecular target: Macrophage colony-stimulating factor 1 receptor (Homo sapiens, UniProt P07333); experiment: Inhibition of human FMS using ATP as substrate
# Chain of Macrophage colony-stimulating factor 1 receptor (P07333 whole entry): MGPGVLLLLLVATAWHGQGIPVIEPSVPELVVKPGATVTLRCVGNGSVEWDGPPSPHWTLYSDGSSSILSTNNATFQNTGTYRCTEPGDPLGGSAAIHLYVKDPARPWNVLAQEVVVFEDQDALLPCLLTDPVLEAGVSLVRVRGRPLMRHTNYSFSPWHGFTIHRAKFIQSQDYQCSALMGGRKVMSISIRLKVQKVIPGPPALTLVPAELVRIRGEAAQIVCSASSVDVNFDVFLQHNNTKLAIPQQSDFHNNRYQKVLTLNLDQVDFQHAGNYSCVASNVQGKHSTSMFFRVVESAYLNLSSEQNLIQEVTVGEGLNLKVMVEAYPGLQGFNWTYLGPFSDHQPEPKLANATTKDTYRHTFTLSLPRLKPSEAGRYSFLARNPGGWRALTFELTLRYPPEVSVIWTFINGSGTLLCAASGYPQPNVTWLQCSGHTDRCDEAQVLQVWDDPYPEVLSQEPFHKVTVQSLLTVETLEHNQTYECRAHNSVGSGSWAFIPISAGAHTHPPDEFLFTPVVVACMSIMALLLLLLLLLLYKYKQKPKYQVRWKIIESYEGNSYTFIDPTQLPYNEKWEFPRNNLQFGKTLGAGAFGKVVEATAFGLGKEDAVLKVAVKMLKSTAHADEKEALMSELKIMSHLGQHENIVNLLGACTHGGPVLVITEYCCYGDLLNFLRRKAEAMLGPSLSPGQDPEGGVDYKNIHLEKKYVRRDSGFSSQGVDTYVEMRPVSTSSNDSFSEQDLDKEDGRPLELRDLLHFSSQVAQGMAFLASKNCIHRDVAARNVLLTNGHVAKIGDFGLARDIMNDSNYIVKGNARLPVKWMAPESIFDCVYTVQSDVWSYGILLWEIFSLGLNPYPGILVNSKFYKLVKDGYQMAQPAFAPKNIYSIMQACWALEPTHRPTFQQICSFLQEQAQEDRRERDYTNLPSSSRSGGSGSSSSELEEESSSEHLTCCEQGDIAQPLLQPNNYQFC
# [13] = Inhibition of CDK at 1 uM
# [14] = system: HUVEC; experiment: Antiangiogenic activity in HUVEC assessed as inhibition of FGF-induced proliferation; format: functional, cell-based; settings: Homo sapiens
# [15] = system: HUVEC; experiment: Cytotoxicity against angiopoietin 1-stimulated HUVEC at > = 50 nM; format: cell-based; settings: human
# [16] = Metabolic stability in mouse liver S9 fraction assessed as compound remaining after 2 hrs; format: ADME, subcellular; settings: read-out: Stability
# [17] = molecular target: Voltage-gated inwardly rectifying potassium channel KCNH2 (Homo sapiens, UniProt Q12809); experiment: Inhibition of human Erg expressed CHO cells; format: cell-based
# [18] = Cmax in athymic nude mouse plasma xenografted with human A375 cells at 10 mg/kg, po
# [19] = Tmax in cynomolgus monkey at 3 mg/kg, po; format: ADME, organism-based, Macaca fascicularis; design: dose 3 mg/kg, route oral; settings: in vivo
# [20] = molecular target: BDNF/NT-3 growth factors receptor (Homo sapiens, UniProt Q16620); experiment: Inhibition of human TRK-B using ATP as substrate
# Chain of BDNF/NT-3 growth factors receptor (Q16620 whole entry): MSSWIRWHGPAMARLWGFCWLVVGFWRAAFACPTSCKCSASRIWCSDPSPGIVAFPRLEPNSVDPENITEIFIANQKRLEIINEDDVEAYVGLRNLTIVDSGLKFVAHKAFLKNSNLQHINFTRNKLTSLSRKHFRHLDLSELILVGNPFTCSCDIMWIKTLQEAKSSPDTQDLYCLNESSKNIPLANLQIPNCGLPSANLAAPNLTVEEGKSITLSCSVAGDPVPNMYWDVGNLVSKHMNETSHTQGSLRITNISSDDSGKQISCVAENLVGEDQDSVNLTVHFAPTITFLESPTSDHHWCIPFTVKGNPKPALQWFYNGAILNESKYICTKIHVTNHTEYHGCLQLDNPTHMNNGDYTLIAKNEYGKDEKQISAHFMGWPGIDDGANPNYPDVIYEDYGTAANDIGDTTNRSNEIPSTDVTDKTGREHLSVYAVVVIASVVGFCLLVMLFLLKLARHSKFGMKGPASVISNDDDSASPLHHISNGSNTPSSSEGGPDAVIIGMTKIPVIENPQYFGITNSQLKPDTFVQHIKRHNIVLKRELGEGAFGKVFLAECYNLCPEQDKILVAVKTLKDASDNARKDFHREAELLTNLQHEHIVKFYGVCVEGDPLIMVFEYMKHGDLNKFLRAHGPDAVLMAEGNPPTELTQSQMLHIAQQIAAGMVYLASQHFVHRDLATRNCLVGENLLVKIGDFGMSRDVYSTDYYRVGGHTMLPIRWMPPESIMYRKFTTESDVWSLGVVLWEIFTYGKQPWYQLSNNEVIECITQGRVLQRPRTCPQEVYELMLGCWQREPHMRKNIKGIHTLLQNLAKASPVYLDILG
# [21] = molecular target: Muscarinic acetylcholine receptor M4 (Homo sapiens) (UniProt P08173); settings: 10 uM
# Description: Inhibition of muscarinic M4 receptor at 10 uM
# [22] = Volume of distribution in Sprague-Dawley rat at 0.8 mg/kg, iv; format: ADME, organism-based; design: dose 0.8 mg/kg, route intravenous; settings: in vivo
# [23] = Terminal half life in cynomolgus monkey at 0.5 mg/kg, iv; format: ADME, organism-based, Macaca fascicularis; design: dose 0.5 mg/kg, route intravenous; settings: in vivo, read-out: beta t1/2 (converted)
# [24] = system: A-375; experiment: Antitumor activity against human A375 cells xenografted in athymic nude mouse assessed as partial tumor regression at 3 mg/kg, po bid; format: functional
# [25] = system: Aorta; experiment: Antiangiogenic activity in rat aortic rings assessed as inhibition of peak phase microvessel growth; format: functional, tissue-based
# [26] = molecular target: Substance-K receptor (Homo sapiens) (UniProt P21452); experiment: Inhibition of neurokinin NK2 receptor at 10 uM
# Chain of Substance-K receptor (Homo sapiens) (P21452 whole entry): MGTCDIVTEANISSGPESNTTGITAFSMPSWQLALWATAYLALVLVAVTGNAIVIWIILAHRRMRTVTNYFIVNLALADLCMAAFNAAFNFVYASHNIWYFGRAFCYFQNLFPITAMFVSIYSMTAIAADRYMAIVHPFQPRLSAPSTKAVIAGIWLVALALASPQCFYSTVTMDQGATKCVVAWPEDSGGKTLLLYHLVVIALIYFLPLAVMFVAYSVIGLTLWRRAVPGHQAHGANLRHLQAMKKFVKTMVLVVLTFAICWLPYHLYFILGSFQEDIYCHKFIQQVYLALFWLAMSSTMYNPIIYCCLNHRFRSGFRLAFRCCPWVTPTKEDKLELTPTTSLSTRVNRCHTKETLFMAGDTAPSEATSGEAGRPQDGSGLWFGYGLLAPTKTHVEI
# [27] = system: A-375; experiment: Antitumor activity against human A375 cells xenografted in athymic nude mouse assessed as tumor growth inhibition at 1 mg/kg, po bid measured on day 29 relative to control; format: functional; settings: A-375, 696 h, read-out: GI
# [28] = molecular target: Serine/threonine-protein kinase Chk2 (Homo sapiens, UniProt O96017); experiment: Inhibition of human CHK2 using ATP as substrate
# Chain of Serine/threonine-protein kinase Chk2 (O96017 whole entry): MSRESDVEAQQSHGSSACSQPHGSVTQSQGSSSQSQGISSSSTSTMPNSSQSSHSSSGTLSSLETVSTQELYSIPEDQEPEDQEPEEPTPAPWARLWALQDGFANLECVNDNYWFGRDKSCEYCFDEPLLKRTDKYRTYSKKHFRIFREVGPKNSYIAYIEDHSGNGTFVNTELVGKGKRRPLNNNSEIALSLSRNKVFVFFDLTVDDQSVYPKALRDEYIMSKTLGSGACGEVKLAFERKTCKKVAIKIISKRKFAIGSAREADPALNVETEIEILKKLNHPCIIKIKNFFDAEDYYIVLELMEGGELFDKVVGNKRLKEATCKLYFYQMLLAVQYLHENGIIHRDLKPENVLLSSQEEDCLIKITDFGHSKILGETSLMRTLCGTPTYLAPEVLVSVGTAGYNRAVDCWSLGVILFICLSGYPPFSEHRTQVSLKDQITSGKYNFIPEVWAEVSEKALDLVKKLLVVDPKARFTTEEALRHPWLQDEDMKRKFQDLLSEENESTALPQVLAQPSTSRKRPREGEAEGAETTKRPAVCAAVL
# [29] = molecular target: Adenosine receptor A2a (Homo sapiens, UniProt P29274); experiment: Inhibition of adenosine A2A receptor
# Chain of Adenosine receptor A2a (P29274 whole entry): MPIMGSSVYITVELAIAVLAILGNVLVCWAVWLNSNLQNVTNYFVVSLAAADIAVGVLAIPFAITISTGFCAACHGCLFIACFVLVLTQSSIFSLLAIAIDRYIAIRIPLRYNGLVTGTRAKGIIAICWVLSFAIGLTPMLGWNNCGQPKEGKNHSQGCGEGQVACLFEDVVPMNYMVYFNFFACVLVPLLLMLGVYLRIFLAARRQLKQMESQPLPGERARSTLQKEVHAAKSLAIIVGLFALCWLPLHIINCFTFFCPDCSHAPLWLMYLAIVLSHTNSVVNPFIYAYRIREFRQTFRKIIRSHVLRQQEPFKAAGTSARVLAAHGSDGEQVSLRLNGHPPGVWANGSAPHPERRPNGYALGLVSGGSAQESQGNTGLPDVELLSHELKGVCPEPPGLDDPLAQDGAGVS
# [30] = system: HUVEC; experiment: Antiangiogenic activity in HUVEC assessed as inhibition of angiopoietin 1-induced chemotaxis at > = 50 nM by boyden chamber assay; format: functional, cell-based; settings: Homo sapiens
# [31] = Antiangiogenic activity in HMVEC assessed as inhibition of FGF-induced migration; format: functional; settings: Homo sapiens
# [32] = Antiangiogenic activity in BAEC assessed as inhibition of FGF-induced survival; format: functional, Bos taurus
# [33] = Inhibition of PKC at 1 uM
# [34] = molecular target: RAC-alpha serine/threonine-protein kinase (Homo sapiens) (UniProt P31749); experiment: Inhibition of PKB at 1 uM
# [35] = system: HUVEC; experiment: Antiangiogenic activity in HUVEC assessed as inhibition of VEGF-induced proliferation; format: functional, cell-based; settings: Homo sapiens
# [36] = Metabolic stability in monkey liver S9 fraction assessed as compound remaining after 2 hrs; format: ADME, subcellular, Macaca mulatta; settings: rhesus monkey, read-out: Stability
# [37] = molecular target: Glycogen synthase kinase-3 beta (Homo sapiens) (UniProt P49841); experiment: Inhibition of GSK3beta at 1 uM
# [38] = system: A-375; experiment: Antitumor activity against human A375 cells xenografted in athymic nude mouse assessed as complete tumor regression at 10 mg/kg, po bid; format: functional
# [39] = Toxicity in dog purkinje fibres assessed as drug-induced QT interval change; format: tissue-based, Canis lupus familiaris, Purkinje fiber
# [40] = molecular target: Tyrosine-protein kinase ABL1 (Homo sapiens) (UniProt P00519); experiment: Inhibition of ABL at 1 uM
# Chain of Tyrosine-protein kinase ABL1 (Homo sapiens) (P00519 whole entry): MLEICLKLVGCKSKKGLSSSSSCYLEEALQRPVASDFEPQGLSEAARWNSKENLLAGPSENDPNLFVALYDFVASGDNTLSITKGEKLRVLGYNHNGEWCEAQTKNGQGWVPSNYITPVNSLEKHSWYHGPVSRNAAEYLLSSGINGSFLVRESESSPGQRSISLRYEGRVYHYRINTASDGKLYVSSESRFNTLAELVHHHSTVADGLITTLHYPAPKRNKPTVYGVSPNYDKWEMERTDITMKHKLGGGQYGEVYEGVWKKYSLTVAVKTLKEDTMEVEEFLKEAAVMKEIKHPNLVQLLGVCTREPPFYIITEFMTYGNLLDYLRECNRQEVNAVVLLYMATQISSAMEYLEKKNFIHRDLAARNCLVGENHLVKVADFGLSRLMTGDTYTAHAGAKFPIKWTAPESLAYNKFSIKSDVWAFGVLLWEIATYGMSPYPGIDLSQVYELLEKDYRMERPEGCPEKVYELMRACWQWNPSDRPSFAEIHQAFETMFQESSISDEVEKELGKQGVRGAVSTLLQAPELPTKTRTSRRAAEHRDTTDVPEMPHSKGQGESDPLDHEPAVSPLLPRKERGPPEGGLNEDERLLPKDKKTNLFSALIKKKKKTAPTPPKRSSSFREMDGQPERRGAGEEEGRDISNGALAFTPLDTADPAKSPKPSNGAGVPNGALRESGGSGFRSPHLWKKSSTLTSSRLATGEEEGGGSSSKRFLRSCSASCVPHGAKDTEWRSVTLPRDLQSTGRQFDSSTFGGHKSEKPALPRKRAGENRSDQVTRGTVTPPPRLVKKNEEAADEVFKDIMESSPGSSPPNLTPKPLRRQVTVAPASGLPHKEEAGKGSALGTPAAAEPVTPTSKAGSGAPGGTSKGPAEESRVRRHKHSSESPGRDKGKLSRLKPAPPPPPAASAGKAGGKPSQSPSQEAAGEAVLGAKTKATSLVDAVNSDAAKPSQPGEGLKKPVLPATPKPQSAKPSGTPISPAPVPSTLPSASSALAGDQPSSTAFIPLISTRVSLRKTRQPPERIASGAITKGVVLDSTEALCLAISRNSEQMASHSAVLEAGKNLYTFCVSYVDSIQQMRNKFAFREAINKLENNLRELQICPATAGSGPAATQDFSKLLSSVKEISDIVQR
# [41] = Antitumor activity against human U251MG cells xenografted in po dosed athymic nude mouse assessed as tumor growth inhibition bid measured on day 29 relative to control; format: functional; settings: U-251, po, 696 h, read-out: MED
# [42] = molecular target: Receptor-type tyrosine-protein kinase FLT3 (Homo sapiens, UniProt P36888); experiment: Inhibition of human FLT3 using ATP as substrate
# [43] = molecular target: Cytochrome P450 3A4 (Homo sapiens, UniProt P08684); experiment: Induction of CYP3A4; format: ADME
# [44] = Antiangiogenic activity in BAEC assessed as inhibition of FGF-induced proliferation; format: functional; settings: Bos taurus
# [45] = Antiangiogenic activity in BAEC assessed as inhibition of FGF-induced migration; format: functional; settings: Bos taurus
# [46] = molecular target: Aurora kinase A (Homo sapiens, UniProt O14965); experiment: Inhibition of human Aurora-A using ATP as substrate
# [47] = system: Mus musculus; experiment: Toxicity in athymic nude mouse bearing human A375 cells assessed as morbidity at 0.1 to 10 mg/kg, po; format: organism-based, A-375; design: dose 0.1-10 mg/kg, route oral; settings: in vivo
# [48] = Oral bioavailability in Sprague-Dawley rat at 5 mg/kg; format: ADME, organism-based; settings: in vivo
# [49] = molecular target: Muscarinic acetylcholine receptor M2 (Homo sapiens) (UniProt P08172); experiment: Inhibition of muscarinic M2 receptor at 10 uM
# Chain of Muscarinic acetylcholine receptor M2 (Homo sapiens) (P08172 whole entry): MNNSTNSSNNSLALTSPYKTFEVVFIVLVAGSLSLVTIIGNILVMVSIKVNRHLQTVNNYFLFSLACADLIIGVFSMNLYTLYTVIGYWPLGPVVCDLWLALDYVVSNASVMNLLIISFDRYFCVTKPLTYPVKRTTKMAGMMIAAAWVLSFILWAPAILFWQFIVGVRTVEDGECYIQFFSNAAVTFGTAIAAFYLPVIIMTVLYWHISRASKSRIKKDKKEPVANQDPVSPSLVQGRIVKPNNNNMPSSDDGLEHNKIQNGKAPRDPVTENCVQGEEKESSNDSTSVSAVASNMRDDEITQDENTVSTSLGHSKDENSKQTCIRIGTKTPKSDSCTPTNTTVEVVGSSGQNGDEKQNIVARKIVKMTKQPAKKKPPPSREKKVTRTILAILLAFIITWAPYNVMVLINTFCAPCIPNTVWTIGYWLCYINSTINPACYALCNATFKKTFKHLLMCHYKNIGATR
# [50] = system: P388; experiment: Antitumor activity against mouse P388 cells xenografted in DBA/2 mouse assessed as mean survival at 30 mg/kg, po bid for 14 days followed by readministeration after 7 days; format: functional
smiles,measurement,setting,value
CC(C)Cn1c2ccc(Nc3ncccn3)cc2c2c3c(c4c(c21)CCc1nn(C)cc1-4)C(=O)NC3 [CEP-11981],pEC50,[1],8.10
same,Activity,[2],22%
same,inhibition,[3],Active
same,MSD,[4],23 days
same,inhibition in vivo at 30 mg/kg,[5],88%
same,inhibition,[6],Active
same,Cmax,[7],491 ng/mL
same,MSD,[8],18.5 days
same,inhibition,[9],> 80%
same,pEC50,[10],8.10
same,Activity,[11],20%
same,pIC50,[12],7.11
same,inhibition,[13],Active
same,pEC50,[14],8.10
same,Activity,[15],Non-toxic
same,remaining at 2 h,[16],65%
same,pIC50,[17],4.70
same,Cmax,[18],456 ng/mL
same,Tmax,[19],2 h
same,pIC50,[20],8.30
same,inhibition,[21],> 80%
same,Vd,[22],1.3 L/kg
same,half-life,[23],1.7 h
same,Activity,[24],11%
same,Activity,[25],Dose-dependent effect
same,pEC50,[25],8.40
same,inhibition,[26],> 80%
same,inhibition in vivo at 1 mg/kg,[27],73%
same,pIC50,[28],6.85
same,pKi,[29],6.30
same,Activity,[30],Active
same,pEC50,[31],8.10
same,pEC50,[32],8.10
same,inhibition,[33],Active
same,inhibition,[34],Active
same,pEC50,[35],8.10
same,remaining at 2 h,[36],54%
same,inhibition,[37],Active
same,Activity,[38],40%
same,Activity,[39],Non-toxic
same,inhibition,[40],Active
same,minimal effective dose,[41],3 mg/kg
same,pIC50,[42],7.15
same,Activity,[43],Not Active
same,pEC50,[44],8.10
same,pEC50,[45],8.10
same,pIC50,[46],7.38
same,Activity,[47],Non-toxic
same,bioavailability,[48],44%
same,inhibition,[49],> 80%
same,MSD,[50],27.5 days
